Measured values from patent US11186577B2, “Vasopressin receptor antagonists and products and methods related thereto” (BlackThorn Therapeutics, Inc., priority 2017, dated 2021).

Experiments:
[1] = biological target: human Arginine Vasopressin Receptor 1a (AVPR1a) (Homo sapiens (Human), UniProt P37288); test: Vasopressin V1A receptor antagonist assay (AVP-evoked calcium, FLIPR, CHO-AVPR1a cells); assay type: cell-based; conditions: read-out: V1a IC50
How it was run: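 CHO cells expressing human AVPR1a, Calcium-6 dye loaded 60-90 min, preincubated with compound 15 min at 37° C., then challenged with AVP at its daily-determined EC80. FLIPR fluorescence; 10-point 1:3 series from 3 μM, duplicates.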

[2] = biological target: human Arginine Vasopressin Receptor 1b (AVPR1b) (Homo sapiens (Human), UniProt P47901); test: Vasopressin V1B receptor antagonist assay (AVP-evoked calcium, FLIPR, CHO-AVPR1b cells); assay type: cell-based
Description: The purpose of the assay is to determine the inhibitory effect of synthesized compounds on the Vasopressin V1b receptor. The assay was performed in Chinese Hamster Ovary (CHO) cells expressing the human Arginine Vasopressin Receptor 1b (AVPR1b). Arginine Vasopressin (AVP) evokes an increase in intracellular calcium in CHO-AVPR1b cells which is measured in a fluorescence assay on the FLIPR^TETRA using calcium sensitive dyes. Test compounds were assessed for their ability to affect the magnitude of the response to AVP, with antagonists showing a concentration-dependent reduction in the AVP-mediated fluorescence.
CHO-AVPR1b cells were maintained in routine culture in T175 Flasks at 37° C., 5% CO2. The growth medium consisted of Ham's F12 media supplemented with 10% v/v fetal bovine serum, 1× non-essential amino acids, and 0.4 mg/ml Geneticin G418.
Cells were harvested from T175 flasks when they were 80-90% confluent by first washing the cell monolayer with PBS and then dissociated using trypsin 0.05%/EDTA (3 mL for a T175 Flask). The flasks were incubated at room temperature until the cells detached. To the cell suspension, 10 ml of growth media was added and the cell density determined using the Vi-Cell automated cell counter. The cells were spun at 1000 rpm for 3 minutes, then the supernatant was carefully removed and discarded. The cell pellet was re-suspended at 6.0e^5 cells/ml in growth media. 25 μL of cells in growth media was dispensed into each well (15,000 cells per well) of a poly-D-lysine coated black, clear bottomed, 384-well plate. The plates were incubated at 37° C., 5% CO2 overnight.
At the start of each assay day, the potency of AVP is assessed and an EC80 concentration determined for subsequent compound profiling. Assays were performed using a two-step addition protocol on the FLIPR^TETRA; first addition of 5 μl of control or test compound at 10× final in assay buffer with 15 min incubation at 37° C., 5% CO2 followed by 10 μl of AVP at 6× final concentration in assay buffer. Changes in fluorescence were monitored for 3 min after both additions on the FLIPR^TETRA using 470-495 nm excitation and 515-575 nm emission wavelengths. The assay buffer consisted of HBSS (+Ca/+Mg) supplemented with 20 mM HEPES, and for the preparation of the AVP agonist only, 0.1% w/v bovine serum albumin. The assay was initiated by the removal of growth media from the cells and replacement with 45 μl of Calcium-6 dye (Molecular Devices) prepared at 1× in assay buffer. Cells were loaded with dye for 60-90 min at 37° C., 5% CO2 before initiation of the FLIPR^TETRA protocol. […] For compound profiling, test compounds were first serially diluted in DMSO (10-point curve, 1:3 dilutions) then diluted 33.3-fold in assay buffer prior to addition to the dye loaded cells on the FLIPR^TETRA. At the end of the incubation period 10 μl of AVP in assay buffer containing 0.1% BSA was added at the previously determined EC80 concentration.
In-plate controls for the assay include a Nelivaptan concentration-response curve as the reference V1b antagonist and an AVP concentration-response curve to confirm the reproducibility of the EC80 used for the compound challenge.

Sequence of human Arginine Vasopressin Receptor 1b (AVPR1b) (P47901 whole entry): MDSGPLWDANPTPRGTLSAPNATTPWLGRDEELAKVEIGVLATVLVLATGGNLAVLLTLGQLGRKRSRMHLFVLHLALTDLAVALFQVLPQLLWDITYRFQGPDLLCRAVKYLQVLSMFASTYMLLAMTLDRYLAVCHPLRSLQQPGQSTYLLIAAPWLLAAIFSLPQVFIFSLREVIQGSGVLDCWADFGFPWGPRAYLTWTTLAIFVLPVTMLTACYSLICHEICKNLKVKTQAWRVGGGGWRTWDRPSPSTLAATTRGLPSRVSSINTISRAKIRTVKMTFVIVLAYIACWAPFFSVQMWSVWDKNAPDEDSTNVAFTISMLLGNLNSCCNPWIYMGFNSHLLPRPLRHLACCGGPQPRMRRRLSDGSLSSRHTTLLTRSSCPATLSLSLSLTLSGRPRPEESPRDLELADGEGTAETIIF
Sequence of human Arginine Vasopressin Receptor 1a (AVPR1a) (P37288 whole entry): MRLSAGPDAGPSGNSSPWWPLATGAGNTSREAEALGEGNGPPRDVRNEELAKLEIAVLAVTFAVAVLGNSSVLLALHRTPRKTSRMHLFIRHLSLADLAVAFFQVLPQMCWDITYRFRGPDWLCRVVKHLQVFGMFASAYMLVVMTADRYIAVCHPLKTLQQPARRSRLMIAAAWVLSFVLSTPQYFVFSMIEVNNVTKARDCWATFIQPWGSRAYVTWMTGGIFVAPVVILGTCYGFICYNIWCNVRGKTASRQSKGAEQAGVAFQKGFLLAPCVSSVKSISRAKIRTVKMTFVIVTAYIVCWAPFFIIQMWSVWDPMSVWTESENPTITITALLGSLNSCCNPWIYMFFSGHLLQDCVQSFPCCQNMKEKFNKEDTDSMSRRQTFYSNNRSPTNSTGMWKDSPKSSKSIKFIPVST

SMILES | IC50 [1] | IC50 [2]
O=C(N1Cc2cc(Cl)ccc2-n2c(nnc2C2CC3(C2)CN(c2cnccn2)C3)C1)C1(F)CC1 [compound 81] | < 100 nM | > 1000 nM
COC(=O)N1Cc2cc(Cl)ccc2-n2c(C3CC4(C3)CN(c3cnccn3)C4)nnc2C1C (single isomer, unassigned) [Cpd 165A] | < 100 nM | > 1000 nM
Clc1ccc2c(c1)CN(C1CCC1)Cc1nnc(C3CC4(C3)CN(c3ccccn3)C4)n1-2 [compound 41] | < 100 nM | > 1000 nM
COC(=O)N1Cc2cc(Cl)ccc2-n2c(C3CC4(C3)CN(c3ccc(F)cn3)C4)nnc2C1C (single isomer, unassigned) [142A] | < 100 nM | > 1000 nM
Clc1ccc2c(c1)CN(C1CC1)Cc1nnc(C3CC4(C3)CN(c3ccccn3)C4)n1-2 [compound 56] | < 100 nM | > 1000 nM
CC(C)OC(=O)N1Cc2cc(Cl)ccc2-n2c(C3CC4(C3)CN(c3ncccn3)C4)nnc2C1C (single isomer, unassigned) [Cpd 167A] | 100 to 500 nM | > 1000 nM
CC(CF)N1Cc2cc(Cl)ccc2-n2c(nnc2C2CC3(C2)CN(c2ccccn2)C3)C1 (stereo not drawn) [compound 58] | < 100 nM | > 1000 nM
CC(C)OC(=O)N1Cc2cc(Cl)ccc2-n2c(nnc2C2CC3(C2)CN(C(=O)C2CC2)C3)C1 [compound 153] | < 100 nM | > 1000 nM
CC(C)C(=O)N1Cc2cc(Cl)ccc2-n2c(nnc2C2CC3(C2)CN(c2ccccn2)C3)C1 [compound 71] | < 100 nM | > 1000 nM
CN1Cc2cc(Cl)ccc2-n2c(nnc2C2CC3(C2)CN(c2ncccc2F)C3)C1 [compound 4] | < 100 nM | > 1000 nM
CC1c2nnc(C3CC4(C3)CN(c3ccc(F)cn3)C4)n2-c2ccc(Cl)cc2CN1C(=O)C1(F)CC1 (stereo not drawn) [compound 174] | < 100 nM | > 1000 nM
CC(C)OC(=O)N1Cc2cc(Cl)ccc2-n2c(C3CC4(C3)CN(c3ncc(F)cn3)C4)nnc2C1C (single isomer, unassigned) [Cpd 201A] | < 100 nM | > 1000 nM
O=C(OC1CC1)N1Cc2cc(Cl)ccc2-n2c(nnc2C2CC3(C2)CN(c2ccc(F)cn2)C3)C1 [compound 90] | < 100 nM | > 1000 nM
CC(C)N1Cc2cc(Cl)ccc2-n2c(nnc2C2CC3(C2)CN(c2cnccn2)C3)C1 [compound 47] | < 100 nM | > 1000 nM
CC1c2nnc(C3CC4(C3)CN(c3ccc(F)cn3)C4)n2-c2ccc(Cl)cc2CN1C(=O)C1(F)CC1 (single isomer, unassigned) [Cpd 174A] | < 100 nM | > 1000 nM
O=C(OC(CF)CF)N1Cc2cc(Cl)ccc2-n2c(nnc2C2CC3(C2)CN(c2ccc(F)cn2)C3)C1 [compound 79] | < 100 nM | > 1000 nM
COC(=O)N1Cc2cc(Cl)ccc2-n2c(C3CC4(C3)CN(c3cccc(C)n3)C4)nnc2C1C (stereo not drawn) [compound 180] | < 100 nM | > 1000 nM
CC1c2nnc(C3CC4(C3)CN(c3ncc(F)cn3)C4)n2-c2ccc(Cl)cc2CN1C(=O)OC1CC1 (single isomer, unassigned) [Cpd 192A] | < 100 nM | > 1000 nM

SMILES | IC50 [1] | IC50 [2]
CC1c2nnc(C3CC4(C3)CN(c3ncccn3)C4)n2-c2ccc(Cl)cc2CN1C(=O)OC1CC1 (single isomer, unassigned) [Cpd 171A] | < 100 nM | > 1000 nM
COC(=O)N1Cc2cc(Cl)ccc2-n2c(C3CC4(C3)CN(c3ccc(F)cn3)C4)nnc2C1C (stereo not drawn) [compound 142, methyl 8-chloro-1-(2-(5-fluoropyridin-2-yl)-2-azaspiro[3.3]heptan-6-yl)-4-methyl-4H-benzo[f][1,2,4]triazolo[4,3-a][1,4]diazepine-5(6H)-carboxylate] | < 100 nM | > 1000 nM
CN1Cc2cc(Cl)ccc2-n2c(nnc2C2CC3(C2)CN(c2cccc(F)n2)C3)C1 [compound 8] | < 100 nM | > 1000 nM
CC(CF)OC(=O)N1Cc2cc(Cl)ccc2-n2c(nnc2C2CC3(C2)CN(c2ccc(F)cn2)C3)C1 (stereo not drawn) [compound 78] | < 100 nM | > 1000 nM
CCC(=O)N1Cc2cc(Cl)ccc2-n2c(nnc2C2CC3(C2)CN(c2ccccn2)C3)C1 [compound 67] | < 100 nM | > 1000 nM
CN1Cc2cc(Cl)ccc2-n2c(nnc2C2CC3(C2)CN(c2ccc(F)cn2)C3)C1 [compound 1, 8-chloro-1-(2-(5-fluoropyridin-2-yl)-2-azaspiro[3.3]heptan-6-yl)-5-methyl-5,6-dihydro-4H-benzo[f][1,2,4]triazolo[4,3-a][1,4]diazepine] | < 100 nM | > 1000 nM
CC(C)OC(=O)N1Cc2cc(Cl)ccc2-n2c(C3CC4(C3)CN(c3ncccn3)C4)nnc2C1C (stereo not drawn) [compound 167] | < 100 nM | > 1000 nM
COC(=O)N1Cc2cc(Cl)ccc2-n2c(C3CC4(C3)CN(c3ncccn3)C4)nnc2C1C (stereo not drawn) [compound 166] | < 100 nM | > 1000 nM
O=C(C(F)F)N1Cc2cc(Cl)ccc2-n2c(nnc2C2CC3(C2)CN(C(=O)C2(F)CC2)C3)C1 [compound 134] | < 100 nM | > 1000 nM
CN1Cc2cc(Cl)ccc2-n2c(nnc2C2CC3(C2)CN(c2ccccn2)C3)C1 [compound 2] | < 100 nM | > 1000 nM
O=C(C(F)F)N1Cc2cc(Cl)ccc2-n2c(nnc2C2CC3(C2)CN(c2ccccn2)C3)C1 [compound 122] | < 100 nM | > 1000 nM
CC1c2nnc(C3CC4(C3)CN(c3cnccn3)C4)n2-c2ccc(Cl)cc2CN1C(=O)C1(F)CC1 (stereo not drawn) [compound 177] | < 100 nM | > 1000 nM
Fc1ccc(N2CC3(CC(c4nnc5n4-c4ccc(Cl)cc4CN(C4CCC4)C5)C3)C2)nc1 [compound 42] | < 100 nM | > 1000 nM
CCOC(=O)N1Cc2cc(Cl)ccc2-n2c(C3CC4(C3)CN(c3ncc(F)cn3)C4)nnc2C1C (stereo not drawn) [compound 172] | < 100 nM | > 1000 nM
FC(F)CN1Cc2cc(Cl)ccc2-n2c(nnc2C2CC3(C2)CN(c2ccccn2)C3)C1 [compound 52] | < 100 nM | > 1000 nM
CC1c2nnc(C3CC4(C3)CN(c3ccc(F)cn3)C4)n2-c2ccc(Cl)cc2CN1C(=O)OC(CF)CF (single isomer, unassigned) [Cpd 203A] | < 100 nM | > 1000 nM
CC(C)N1Cc2cc(Cl)ccc2-n2c(nnc2C2CC3(C2)CN(c2ncccc2F)C3)C1 [compound 54] | < 100 nM | > 1000 nM
CN1Cc2cc(Cl)ccc2-n2c(nnc2C2CC3(C2)CN(c2cnccn2)C3)C1 [compound 3] | < 100 nM | > 1000 nM
